Laboratory results published in ChEMBL document CHEMBL3745684, “Synthesis of a norcantharidin-tethered guanosine: Protein phosphatase-1 inhibitors that change alternative splicing” (Bioorg Med Chem Lett, 2016).
The source made the active and inactive calls. No cut-off for these calls is given here.

Columns and labels:
Format in all cases: cell-based
HEK293 [1] = experiment: Inhibition of protein phosphatase-1 in human HEK293 cells assessed as exon 7 inclusion in the survival of motor neuron 2 gene at 1 to 100 uM after 14 to 16 hrs by RT-PCR analysis
HEK293 [2] = experiment: Inhibition of protein phosphatase-1 in human HEK293 cells assessed as increase in exon 7 inclusion in the survival of motor neuron 2 gene at 10 to 100 uM after 14 to 16 hrs by RT-PCR analysis
HEK293 [3] = experiment: Inhibition of protein phosphatase-1 in human HEK293 cells assessed as increase in exon 7 inclusion in the survival of motor neuron 2 gene after 14 to 16 hrs by RT-PCR analysis

CNCCc1ccc(CCO)cc1
inhibition (HEK293 [1]): inactive

CO[C@@H]1[C@H](OP(=O)(O)OCCc2ccc(CCN(C)C(=O)[C@H]3[C@@H](C(=O)O)[C@@H]4CC[C@H]3O4)cc2)[C@@H](CO)O[C@H]1n1cnc2c(=O)[nH]c(N)nc21 (mixture of isomers)
Activity (HEK293 [2]): 25% | Activity (HEK293 [3]): Dose-dependent effect
